The values that follow come from ChEMBL document CHEMBL3585240, “Synthesis and biological evaluation of caracasine acid derivatives” (Bioorg Med Chem, 2015).

Activity calls are given as the source filed them. The rule behind the calls is not given here.

For assay [1], the system named is Escherichia coli. Kind of assay: Antibacterial activity against Escherichia coli ATCC 35218 assessed as growth inhibition at 15 ug after 24 hrs by disc agar diffusion method. The following applies: ATCC 35218, 24 h, read-out: DIZ. The assay is classed as functional. In general terms: In agar diffusion tests the substance spreads into inoculated agar from a disc or well.

Assay [2] relates to Staphylococcus aureus. Kind of assay: Antibacterial activity against Staphylococcus aureus ATCC 25923 assessed as growth inhibition at 15 ug after 24 hrs by disc agar diffusion method. The assay is classed as functional. The following applies: ATCC 25923, 24 h, read-out: DIZ.
In assay [3] the test system is Bacillus cereus. Kind of assay: Antibacterial activity against Bacillus cereus ATCC 14579 assessed as growth inhibition at 15 ug after 24 hrs by disc agar diffusion method. Format: functional. The following applies: ATCC 14579, 24 h, read-out: DIZ.
For assay [4], the system named is Pseudomonas aeruginosa. Briefly: Antibacterial activity against Pseudomonas aeruginosa ATCC 27853 assessed as growth inhibition at 15 ug after 24 hrs by disc agar diffusion method. The following applies: ATCC 27853, 24 h, read-out: DIZ. The assay is classed as functional.
The test system of assay [5] is Staphylococcus aureus. Briefly: Antibacterial activity against Staphylococcus aureus ATCC 25923 assessed as growth inhibition at 5 ug after 24 hrs by disc agar diffusion method. The assay is classed as functional. The following applies: ATCC 25923, 24 h, read-out: DIZ.
Assay [6] has as its system Pseudomonas aeruginosa. Kind of assay: Antibacterial activity against Pseudomonas aeruginosa ATCC 27853 assessed as growth inhibition at 5 ug after 24 hrs by disc agar diffusion method. Format: functional. The following applies: ATCC 27853, 24 h, read-out: DIZ.
Assay [7] concerns Escherichia coli. Briefly: Antibacterial activity against Escherichia coli ATCC 35218 assessed as growth inhibition at 5 ug after 24 hrs by disc agar diffusion method. The assay is classed as functional. The following applies: ATCC 35218, 24 h, read-out: DIZ.
Assay [8] has as its system Bacillus cereus. Kind of assay: Antibacterial activity against Bacillus cereus ATCC 14579 assessed as growth inhibition at 5 ug after 24 hrs by disc agar diffusion method. The assay is classed as functional. The following applies: ATCC 14579, 24 h, read-out: DIZ.
The test system of assay [9] is Bacillus cereus. Briefly: Antibacterial activity against Bacillus cereus ATCC 14579 assessed as growth inhibition at 30 ug after 24 hrs by disc agar diffusion method. The assay is classed as functional. The following applies: ATCC 14579, 24 h, read-out: DIZ.
The subject of assay [10] is Escherichia coli. Briefly: Antibacterial activity against Escherichia coli ATCC 35218 assessed as growth inhibition at 30 ug after 24 hrs by disc agar diffusion method. Format: functional. The following applies: ATCC 35218, 24 h, read-out: DIZ.
Assay [11] has as its system Pseudomonas aeruginosa. Briefly: Antibacterial activity against Pseudomonas aeruginosa ATCC 27853 assessed as growth inhibition at 30 ug after 24 hrs by disc agar diffusion method. The assay is classed as functional. The following applies: ATCC 27853, 24 h, read-out: DIZ.
The subject of assay [12] is Staphylococcus aureus. Kind of assay: Antibacterial activity against Staphylococcus aureus ATCC 25923 assessed as growth inhibition at 30 ug after 24 hrs by disc agar diffusion method. The assay is classed as functional. The following applies: ATCC 25923, 24 h, read-out: DIZ.
Assay [13] deals with PC-3. Briefly: Cytotoxicity against human PC3 cells assessed as growth inhibition after 72 hrs by MTT assay. The assay is classed as functional, cell-based. The following applies: PC-3, 72 h.
The subject of assay [14] is MCF7. Briefly: Cytotoxicity against human MCF7 cells assessed as growth inhibition after 72 hrs by MTT assay. Format: functional, cell-based. The following applies: MCF7, 72 h. On the technique in general: Tetrazolium assays rely on reduction of a dye to a coloured formazan, in cell work by metabolically active cells.
Assay [15] relates to Staphylococcus aureus. Kind of assay: Antibacterial activity against Staphylococcus aureus ATCC 25923 assessed as growth inhibition at 2 mg/ml after 24 hrs by disc agar diffusion method. Format: functional.
The nature of assay [16]: Selectivity index, ratio of IC50 for human skin fibroblasts to IC50 for epimastigote stage of Trypanosoma cruzi CL Brener.
The subject of assay [17] is Bacillus cereus. Kind of assay: Antibacterial activity against Bacillus cereus ATCC 14579 assessed as growth inhibition at 2 mg/ml after 24 hrs by disc agar diffusion method. Format: functional.
Assay [18] is described as follows: Selectivity index, ratio of IC50 for human skin fibroblasts to IC50 for promastigote stage of Leishmania mexicana Bel21.
Assay [19] in a line: Cytotoxicity against human skin fibroblasts assessed as growth inhibition after 72 hrs by MTT assay. The following applies: Skin fibroblast.
The test system of another assay is Trypanosoma cruzi. Briefly: Antitrypanosomal activity against epimastigote stage of Trypanosoma cruzi CL Brener assessed as growth inhibition after 5 days by MTT assay. The assay is classed as functional. The following applies: 120 h.
Assay [20] has as its system MCF7. Briefly: Selectivity index, ratio of IC50 for human skin fibroblasts to IC50 for human MCF7 cells.
Assay [21] deals with Escherichia coli. Briefly: Antibacterial activity against Escherichia coli ATCC 35218 assessed as growth inhibition at 2 mg/ml after 24 hrs by disc agar diffusion method. Format: functional.
Another assay concerns Leishmania mexicana. Kind of assay: Antileishmanial activity against promastigote stage of Leishmania mexicana Bel21 assessed as growth inhibition after 48 hrs by MTT assay. Format: functional, organism-based. The following applies: Bel21, 48 h.
The subject of assay [22] is PC-3. Kind of assay: Selectivity index, ratio of IC50 for human skin fibroblasts to IC50 for human PC3 cells.
Assay [23] relates to Pseudomonas aeruginosa. Briefly: Antibacterial activity against Pseudomonas aeruginosa ATCC 27853 assessed as growth inhibition at 2 mg/ml after 24 hrs by disc agar diffusion method. The assay is classed as functional.
Assay [24] relates to Pseudomonas aeruginosa. Briefly: Antibacterial activity against Pseudomonas aeruginosa ATCC 27853 assessed as growth inhibition at 20 ug after 24 hrs by disc agar diffusion method in presence of sulbactam. Format: functional. The following applies: ATCC 27853, 24 h, read-out: DIZ.
Assay [25] concerns Escherichia coli. Briefly: Antibacterial activity against Escherichia coli ATCC 35218 assessed as growth inhibition at 20 ug after 24 hrs by disc agar diffusion method in presence of sulbactam. The assay is classed as functional, organism-based.
The subject of assay [26] is Staphylococcus aureus. Briefly: Antibacterial activity against Staphylococcus aureus ATCC 25923 assessed as growth inhibition at 20 ug after 24 hrs by disc agar diffusion method in presence of sulbactam. The following applies: ATCC 25923, 24 h, read-out: DIZ. The assay is classed as functional.
The subject of assay [27] is Bacillus cereus. Kind of assay: Antibacterial activity against Bacillus cereus ATCC 14579 assessed as growth inhibition at 20 ug after 24 hrs by disc agar diffusion method in presence of sulbactam. The assay is classed as functional, organism-based.

For `CC[C@H]1OC(=O)C[C@@H](O)[C@H](C)[C@@H](O[C@@H]2O[C@H](C)[C@@H](O)[C@H](N(C)C)[C@H]2O)[C@@H](CCN2C[C@H](C)C[C@H](C)C2)C[C@@H](C)C(=O)/C=C/C(C)=C/[C@@H]1CO[C@@H]1O[C@H](C)[C@@H](O)[C@@H](OC)[C@H]1OC` [TILMICOSIN], the zone of inhibition at 15 µg/disc turned out to be 18 mm in the assay on Escherichia coli [1], 23 mm with Staphylococcus aureus [2], 32 mm in the assay with Bacillus cereus [3] and 18 mm with Pseudomonas aeruginosa [4].

For the molecule `CC1COc2c(N3CCN(C)CC3)c(F)cc3c(=O)c(C(=O)O)cn1c23` (configuration not stated) [OFLOXACIN], the zone of inhibition at 5 µg/disc with Staphylococcus aureus [5] amounted to 25 mm; with Pseudomonas aeruginosa [6], 15 mm; in the assay on Escherichia coli [7], 24 mm; with Bacillus cereus [8], 28 mm.

For the molecule `NCC[C@H](O)C(=O)N[C@@H]1C[C@H](N)[C@@H](O[C@H]2O[C@H](CN)[C@@H](O)[C@H](O)[C@H]2O)[C@H](O)[C@H]1O[C@H]1O[C@H](CO)[C@@H](O)[C@H](N)[C@H]1O` [AMIKACIN], the zone of inhibition at 30 µg/disc in the assay with Bacillus cereus [9] was 32 mm; with Escherichia coli [10] it was 22 mm; in the assay on Pseudomonas aeruginosa [11] it was 16 mm; with Staphylococcus aureus [12], 16 mm.

For `C=C1C(=O)[C@@]23CC[C@H](C(=C)C)[C@@](C)(CCC(=O)OCC)[C@@H]2CC[C@H]1C3`, the IC50 turned out to be 4.4 µM with PC-3 [13]; 5.1 µM in the assay on MCF7 [14]; 3.7 µM in assay [19]; 2.7 µM in the assay on Trypanosoma cruzi; 1.6 µM in the assay on Leishmania mexicana. Besides, the “growth inhibition (GI)” value in the assay with Staphylococcus aureus [15], in the assay on Bacillus cereus [17], with Escherichia coli [21] and in the assay on Pseudomonas aeruginosa [23] was “inactive” each time. The “Ratio IC50” value in assay [16] was 1.4; in assay [18], 2.3; in the assay on MCF7 [20], 0.7; in the assay with PC-3 [22], 0.8.

In the case of `CC1(C)S[C@@H]2[C@H](NC(=O)[C@H](N)c3ccccc3)C(=O)N2[C@H]1C(=O)O` [AMPICILLIN], the results for the zone of inhibition at 20 µg/disc in the assay on Pseudomonas aeruginosa [24] and in the assay with Staphylococcus aureus [26] were 12 mm and 18 mm, respectively. The “growth inhibition (GI)” value in the assay with Escherichia coli [25] and with Bacillus cereus [27] was “inactive” each time.

Regarding `C=C1C(=O)[C@@]23CC[C@H](C(=C)C)[C@@](C)(CCC(=O)OCCC)[C@@H]2CC[C@H]1C3`, the IC50 in the assay with PC-3 [13] came out at 4.2 µM; in the assay on MCF7 [14] it was 6.6 µM; in assay [19] it was 6.2 µM; with Trypanosoma cruzi, 3.1 µM; in the assay on Leishmania mexicana, 1.5 µM. The zone of inhibition at 2000 µg/mL in the assay on Staphylococcus aureus [15] (ATCC 25923, 24 h, read-out: DIZ) came out at 12 mm; in the assay on Bacillus cereus [17] (ATCC 14579, 24 h, read-out: DIZ), 20 mm. Further, the “Ratio IC50” value is 2 in assay [16], 4.1 in assay [18], 0.9 with MCF7 [20] and 1.5 in the assay with PC-3 [22]. In addition, the “growth inhibition (GI)” value in the assay on Escherichia coli [21] and in the assay on Pseudomonas aeruginosa [23] was “inactive” each time.

By IC50 is commonly meant the midpoint of a concentration-inhibition curve.
